{"source": "paper PMC2941991", "about": "(ACS chemical biology, 2009)", "target": "T1, T877A full-length androgen receptor mutant (Homo sapiens, UniProt P10275, T878A)", "T1 sequence (P10275 1-920 T878A)": "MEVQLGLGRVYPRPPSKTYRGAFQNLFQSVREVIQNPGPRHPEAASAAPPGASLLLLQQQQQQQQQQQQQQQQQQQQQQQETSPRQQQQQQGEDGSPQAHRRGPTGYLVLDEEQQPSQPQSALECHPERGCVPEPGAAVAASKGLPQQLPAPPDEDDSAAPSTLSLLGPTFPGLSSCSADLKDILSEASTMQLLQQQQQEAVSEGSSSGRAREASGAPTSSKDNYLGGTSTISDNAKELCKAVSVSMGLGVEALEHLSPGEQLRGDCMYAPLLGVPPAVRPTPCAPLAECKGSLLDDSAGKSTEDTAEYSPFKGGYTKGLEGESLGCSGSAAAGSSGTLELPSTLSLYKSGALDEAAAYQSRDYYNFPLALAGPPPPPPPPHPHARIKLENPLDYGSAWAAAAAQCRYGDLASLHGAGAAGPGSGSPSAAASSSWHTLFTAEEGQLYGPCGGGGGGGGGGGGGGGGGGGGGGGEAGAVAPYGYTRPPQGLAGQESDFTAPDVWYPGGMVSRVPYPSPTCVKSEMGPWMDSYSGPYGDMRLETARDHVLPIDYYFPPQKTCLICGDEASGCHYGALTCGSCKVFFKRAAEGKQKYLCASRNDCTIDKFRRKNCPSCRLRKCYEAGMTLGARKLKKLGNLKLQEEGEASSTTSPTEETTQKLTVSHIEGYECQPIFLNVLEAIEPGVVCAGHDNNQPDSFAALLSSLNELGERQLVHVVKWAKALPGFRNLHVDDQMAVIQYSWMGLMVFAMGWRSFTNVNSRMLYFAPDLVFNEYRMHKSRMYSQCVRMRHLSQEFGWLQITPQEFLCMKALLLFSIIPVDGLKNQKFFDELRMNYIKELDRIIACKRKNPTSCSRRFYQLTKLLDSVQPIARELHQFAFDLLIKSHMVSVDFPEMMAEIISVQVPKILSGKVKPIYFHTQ", "assay": "Luciferase reporter gene assay, full-length AR with the LNCaP mutation", "assay_type": "cell-based", "data": [{"smiles": "CC(C)(O)C(=O)Nc1ccc([N+](=O)[O-])c(C(F)(F)F)c1", "note": "[OH-Flu, 2-hydroxyflutamide]", "values": [{"measurement": "Agonist or antagonist action on the AR T877A mutant", "value": "act as agonists"}]}]}
